# Reference: US10898609B2, “Tissue decellularization methods” (priority 2015, dated 2021)
# How the values were obtained:
# Format in all cases: cell-based, Sprague Dawley rats
# [1] = test system: active caspase 3; assay: Immunochemistry for active caspase 3 on nerve tissue sections; settings: 10 μM camptothecin, 2 days, 37° C., ex vivo nerve; vs media control
# Procedure: (§1) Peripheral nerves were harvested from Sprague Dawley rats and decellularized according to an apoptosis-assisted protocol using 10 μM camptothecin in non-supplemented media at 37° C. for 2 days. Tissue in media without camptothecin was used as a control. Apoptotic agent treatment was succeeded by washes in saline buffered solutions to optimize cell removal. The degree of apoptosis, cellular removal, and matrix preservation was assessed using immunochemistry on nerve tissue sections and fluorescence imaging. Antibodies used to identify apoptosis, cell removal, and tissue preservation include those against active caspase 3 (Abcam); neurofilament (RT-97, DSHB) and S100 (Dako); and laminin (Sigma), respectively. […] Total DNA content was quantified using a Picogreen DNA assay (Life Technologies) according to manufacturer's instructions.
# [2] = test system: peripheral nerve; assay: Total DNA content of decellularized peripheral nerve, Picogreen DNA assay; settings: 1 day
# Procedure: Peripheral nerves were harvested from Sprague Dawley rats and decellularized according to an apoptosis-assisted protocol using 5 μM camptothecin in non-supplemented media at 37° C. for 1 day. Tissue in media without camptothecin, an apoptotic agent, was used as a control. Apoptotic agent treatment was succeeded by washes in saline buffered solutions to optimize cell removal. Furthermore, the tissue was treated with 75 u/mL DNAse for 24 hours to ensure DNA removal. The degree of apoptosis, cellular removal, and matrix preservation was assessed using immunochemistry on nerve tissue sections and fluorescence imaging (FIG. 2). Antibodies used to identify apoptosis, cell removal, and tissue preservation include those against active caspase 3 (Abcam); neurofilament (RT-97, DSHB) and S100 (Dako); and laminin (Sigma), respectively. […] FIGS. 2B and 2C show nerves treated with 5 μM for 1 day, washed with a hypertonic, and either washed with a hypertonic solution or treated for 24 hours with DNAse, respectively. […] FIGS. 2E and 2F show treatment with higher camptothecin (10 μM), again for 1 day, and washed similarly to tissue in FIGS. 2B and 2C. These images depict 1) apoptosis induction is necessary prior to washing to effectively remove cellular components and 2) combing apoptosis induction with washes in non-isotonic solutions achieves cellular removal of peripheral nerve tissue. Total DNA content was quantified using a Picogreen DNA assay (Life Technologies) according to manufacturer's instructions.
# [3] = test system: peripheral nerve; assay: TUNEL assay of apoptosis-mediated DNA fragmentation in nerve tissue; settings: 10 μM camptothecin, 2 days, 37° C., ex vivo nerve; vs media control
# Procedure: as §1
compound,measurement,setting,value
CC[C@@]1(O)C(=O)OCc2c1cc1n(c2=O)Cc2cc3ccccc3nc2-1 [camptothecin],active caspase 3 (early mediator of apoptosis),[1],caspase 3 activation
same,reduction in DNA content compared to fresh nerve,"[2]; 5 μM camptothecin, 37° C., hypertonic and hypotonic washes",71.9%
same,reduction in DNA content compared to fresh nerve,"[2]; 5 μM camptothecin, hypotonic wash replaced with DNAse treatment (75 u/mL, 24 hours)",95.1%
same,reduction in DNA content compared to fresh nerve,"[2]; 10 μM camptothecin, hypertonic and hypotonic washes",57.3%
same,reduction in DNA content compared to fresh nerve,"[2]; 10 μM camptothecin, hypotonic wash replaced with DNAse treatment (75 u/mL, 24 hours)",95.8%
same,DNA fragmentation (TUNEL staining),[3],DNA fragmentation
